Source: patent US10620222B2, “Electrified compositions for determining the risk of developing adolescent idiopathic scoliosis through the use of GI protein receptor” (CHU Sainte-Justine, priority 2008, dated 2020)
“And” between values parts separate entries of the source, which are not always exact repeats. Identical values can stand only once.

Tested on: receptors coupled to Gi proteins expressed on osteoblasts
Test: Cellular Dielectric Spectroscopy (CDS, CELLKEY) response to Gi-coupled receptor ligands in osteoblasts from control and AIS subjects
Assay type: cell-based, human
Parameters: % of control / % of control signal, Group 1, min diff. / % of control signal, Group 2, min diff. / % of control signal, Group 3, min diff.: concentration or dose not given beside the values; dZiec value / Absolute dZiec, control value of max diff. (maximal control value): unit not given here
Details: for % of control / dZiec value: maleate; for dZiec value: n1, n2 of Exper. 1-3
Excerpt: Bone specimens were obtained intraoperatively from vertebras (varying from T3 to L4 according to the surgical procedure performed), while with trauma cases used as non-scoliotic controls bone specimens were obtained from other anatomical sites (tibia or femur, and in one case from an iliac crest biopsy). Osteoblasts and myoblasts isolated as previously described (Moreau A, Wang D S, Forget S et al. Melatonin Signaling Dysfunction in Adolescent Idiopathic Scoliosis. Spine 2004; 29:1772-81; Azeddine et al., 2007 Molecular determinants of melatonin signaling dysfunction in adolescent idiopathic scoliosis. Clin Orthop Relat Res. 2007, 462:45-52), were cultured at 37° C./5% CO2 in MEM supplemented with 10% fetal bovine serum (FBS) and 100 μg/mL streptomycin. Prior to the experiment, cells were seeded into the CELLKEY™ label-free cellular analysis system standard 96-well plates at a density of 5×10^4/well and grown for 24 h and incubated in standard conditions (37° C./5% CO2). In some plates, Pertussis toxin (100 ng/mL, Sigma, Oakville, ON, Canada) treatment was performed 16 h before the CDS assay. Following overnight incubation, plates were placed onto the CELLKEY™ label-free cellular analysis system and growth medium was exchanged to assay buffer (Hanks, Balanced Salt Solution containing 20 mM HEPES and 0.1% BSA) before starting the experiment. Cells were then allowed to equilibrate at room temperature for 30 min. Pre-addition measurements were made for 5 min to obtain a baseline reading. […] The quick update rate (2 s.) of the CELLKEY™ label-free cellular analysis system allows detection of these immediate changes in impedance. Impedance measurements were collected for 10 min to 15 min at 28° C. after ligand addition to monitor cellular responses to ligand interaction and to generate CELLKEY™ label-free cellular analysis system response profiles that are characteristic of the signaling mechanisms used.
The response induced by the various ligands to their receptors was measured by cellular dielectric spectroscopy (CDS) using the CELLKEY™ label-free cellular analysis technology. (MDS Sciex, San Francisco, Calif., USA). The CELLKEY™ label-free cellular analysis system integrates a proprietary impedance measurement system, custom 96-well microliter plate, onboard 96-well fluidics, and environment control and custom acquisition and analysis software in a full solution package (MDS Sciex) that is compatible with commercially available robotic platforms. Small voltage at 24 frequencies, from 1 KHz to 10 MHz, is applied to a monolayer of cells settled in a 96-well microplate containing electrodes at the bottom, and the resultant current is measured at an update rate of 2 s. […] Onboard fluid additions and exchanges are handled by 96-well head fluid delivery device with a range of 5-500 μL. In addition to the cell plate location, the CELLKEY™ label-free cellular analysis system includes two additional stations for 96- or 384-well compound plates. All aspects of assay set up, execution, and data acquisition and analysis are controlled by CELLKEY™ label-free cellular analysis software.
The minimal (min) and maximal (max) values represent the mean of three independent measurements performed in duplicate (six values in total) for a given patient/control subject. […] Duplicates (n1 and n2) of three independent experiments are presented.

[1] = osteoblasts of control subjects, 300 μM ligand, from FIGS. 11A-11F

SMILES: O=C(O)/C=C\C(=O)O.c1ccc(N2CCN(CCCOc3ccc4c(c3)OCO4)CC2)cc1 [BP554, 1-[3-(3,4-Methylenedioxyphenoxy)propyl]-4-phenyl-piperazine maleate]
- % of control (osteoblasts of AIS#1020 (Group 3) relative to CTR#60): 44.5% and 42.3% and 48.5% and 45.1% and 43.7% and 46.6%
- dZiec value (osteoblasts of AIS#1020 (Group 3), 300 μM ligand): 62.57 and 64.57 and 78.63 and 76.63 and 66.6 and 74.6
- % of control (osteoblasts of AIS#1198 (Group 3 in Table II) relative to CTR#69): 41.1% and 45.0% and 40.6% and 43.5%
- dZiec value (osteoblasts of AIS#1198 (Group 3 in Table II), 300 μM ligand): 59.83 and 64.83 and 74.63 and 70.63 and 63.73 and 71.73
- % of control (osteoblasts of AIS#1385 (Group 2) relative to CTR#69): 50.4% and 43.4% and 51.9% and 49.0% and 46.4% and 44.8%
- dZiec value (osteoblasts of AIS#1385 (Group 2), 300 μM ligand): 73.41 and 68.41 and 86.15 and 85.15 and 72.78 and 73.78
- % of control (osteoblasts of AIS#1468 (Group 3) relative to CTR#61): 63.8% and 66.8% and 67.5% and 69.1% and 66.0% and 67.8%
- dZiec value (osteoblasts of AIS#1468 (Group 3), 300 μM ligand): 84.51 and 96.51 and 104.4 and 112.4 and 95.45 and 103.45
- % of control (osteoblasts of AIS#1474 (Group 1) relative to CTR#60): 28.4% and 27.5% and 31.8% and 29.7% and 28.7% and 29.1%
- dZiec value (osteoblasts of AIS#1474 (Group 1), 300 μM ligand): 39.94 and 41.94 and 51.45 and 50.45 and 43.7 and 46.7
- % of control (osteoblasts of AIS#1488 (Group 1) relative to CTR#69): 30.2% and 29.2% and 32.7% and 30.0% and 28.8% and 32.3%
- dZiec value (osteoblasts of AIS#1488 (Group 1), 300 μM ligand): 44.06 and 46.06 and 54.24 and 52.24 and 45.15 and 53.15
- % of control (osteoblasts of AIS#1513 (Group 3) relative to CTR#61): 68.8% and 71.4% and 73.3% and 74.6% and 71.5% and 72.9%
- dZiec value (osteoblasts of AIS#1513 (Group 3), 300 μM ligand): 91.15 and 103.15 and 113.38 and 121.38 and 103.27 and 111.27
- % of control (osteoblasts of AIS#1549 (Group 1) relative to CTR#61): 19.7%
- % of control (osteoblasts of AIS#1550 (Group 2) relative to CTR#60): 53.1% and 56.8% and 56.5% and 58.5% and 55.2% and 57.4%
- dZiec value (osteoblasts of AIS#1550 (Group 2), 300 μM ligand): 74.64 and 86.64 and 91.46 and 99.46 and 84.05 and 92.05
- dZiec value (osteoblasts of control CTR#60, 300 μM ligand): 140.49/— and 152.49/— and 162/— and 170/— and 152.25/— and 160.25/—
- dZiec value (osteoblasts of control CTR#61, 300 μM ligand): 132.45/— and 144.45/— and 154.6/— and 162.6/— and 144.53/— and 152.53/—
- dZiec value (osteoblasts of control CTR#69, 300 μM ligand): 145.69/— and 157.69/— and 165.87/— and 173.87/— and 156.78/— and 164.78/—
- Absolute dZiec, control value of max diff. (maximal control value) [1]: 166
- Absolute dZiec, control value of min diff. (minimal control value) [1]: 128
- Absolute dZiec, Group 1, max diff. (group value) (osteoblasts, AIS Group 1 value of max diff., 300 μM ligand, from FIGS. 11A-11F): 32
- Absolute dZiec, Group 1, min diff. (group value) (osteoblasts, AIS Group 1 value of min diff., 300 μM ligand, from FIGS. 11A-11F): 49
- % of control signal, Group 1, max diff. (osteoblasts, AIS Group 1 vs maximal control value): 19%
- % of control signal, Group 1, min diff. (osteoblasts, AIS Group 1 vs minimal control value): 38%
- Absolute dZiec, Group 2, max diff. (group value) (osteoblasts, AIS Group 2 value of max diff., 300 μM ligand, from FIGS. 11A-11F): 67
- Absolute dZiec, Group 2, min diff. (group value) (osteoblasts, AIS Group 2 value of min diff., 300 μM ligand, from FIGS. 11A-11F): 88
- % of control signal, Group 2, max diff. (osteoblasts, AIS Group 2 vs maximal control value): 40%
- % of control signal, Group 2, min diff. (osteoblasts, AIS Group 2 vs minimal control value): 69%
- Absolute dZiec, Group 3, max diff. (group value) (osteoblasts, AIS Group 3 value of max diff., 300 μM ligand, from FIGS. 11A-11F): 99
- Absolute dZiec, Group 3, min diff. (group value) (osteoblasts, AIS Group 3 value of min diff., 300 μM ligand, from FIGS. 11A-11F): 107
- % of control signal, Group 3, max diff. (osteoblasts, AIS Group 3 vs maximal control value): 60%
- % of control signal, Group 3, min diff. (osteoblasts, AIS Group 3 vs minimal control value): 84%
